Data as given in patent publication US9932637B2, “Genetic polymorphisms associated with cardiovascular disorders and drug response, methods of detection and uses thereof” (CELERA CORPORATION, priority 2003, dated 2018).

System: patients with prior myocardial infarction (CARE study)
Test: CARE: association of SNPs with pravastatin treatment in cardiovascular events prevention (logistic regression, odds ratio pravastatin vs placebo by genotype; Table 8)
Assay type: in vivo, human
Conditions: for Prava vs. Placebo Odds Ratio, 0 Rare Alleles / Prava vs. Placebo Odds Ratio, 1 Rare Alleles / Prava vs. Placebo Odds Ratio, 2 Rare Alleles: SELP hCV11975296; for Prava vs. Placebo Odds Ratio, 0 Rare Alleles / Prava vs. Placebo Odds Ratio, 1 Rare Alleles / Prava vs. Placebo Odds Ratio, 2 Rare Alleles / Odds ratio pravastatin vs placebo: All Patients; for Any Report of Stroke During CARE, n/total (%) / Fatal/Non-fatal Cerebrovascular Disease, n/total (%): SERPINA1 hCV1260328, All Patients; for Coronary Artery Bypass Graft, n/total (%): SERPINA1 hCV25640505, All Patients; for Fatal/Nonfatal Atherosclerotic CV Disease, n/total (%): SERPINB6 hCV16190893, All Patients; for Fatal CHD/Definite Non-fatal MI, n/total (%): TAP1 hCV549926, All Patients
Description: In order to identify genetic markers associated with acute coronary events (e.g. MI, stroke, unstable angina, congestive heart failure, etc.) or response to statin treatment for the prevention of coronary events, samples from the Cholesterol and Recurrent Events (CARE) study (a randomized multicentral double-blinded trial on secondary prevention of acute coronary events with pravastatin) (Sacks et al., 1991, Am. J. Cardiol. 68: 1436-1446) were genotyped. A well-documented myocardial infarction (MI) was one of the enrollment criteria for entry into the CARE study. Patients were enrolled in the CARE trial from 80 participating study centers. […] Patients were randomized to receive either 40 mg of pravastatin once daily or a matching placebo. The primary endpoint of the trial was death from coronary heart disease and the median duration of follow-up was 5.0 years (range, 4.0 to 6.2 years). […] Secondary endpoints of other related cardiovascular or metabolic disease events, and changes in clinical variables were also recorded in pravastatin-treated and placebo groups. All individuals included in the study had signed a written informed consent form and the study protocol was approved by the respective Institutional Review Boards (IRBs).
For genotyping SNPs in CARE patient samples, DNA was extracted from blood samples using conventional DNA extraction methods such as the QIA-amp kit from Qiagen. Genotypes were obtained on an ABI PRISM® 7900HT Sequence Detection PCR system (Applied Biosystems, Foster City, Calif.) by kinetic allele-specific PCR, similar to the method described by Germer et al. (Germer S., Holland M. J., Higuchi R. 2000, Genome Res. 10: 258-266).
Statistical analysis for association of SNPs with pravastatin treatment in cardiovascular events prevention (Table 8) was carried out using an overall logistic regression model that included an intercept, a parameter for the effect of a genotype containing two rare alleles versus a genotype containing no rare alleles, a parameter for the effect of a genotype containing one rare allele versus a genotype containing no rare alleles, a parameter for the effect of use of pravastatin versus the use of placebo, and parameters for the interaction effects between SNP genotypes and pravastatin use. The test of the overall model is a chi-square test with two degrees of freedom for analyses containing all three genotypes, and one degree of freedom for analyses containing two genotypes.
Effect sizes were estimated through odds ratios (pravastatin group versus placebo) for carriers of each genotype (groups of 0, 1, and 2 minor allele carriers). The effect was considered to be significant if p-value for testing whether any of the interactions between SNP genotypes and pravastatin use were <0.05. […] Odds ratios less than one indicate that the specific SNP allele has a protective effect and odds ratios greater than one indicate that the specific SNP allele has an adverse effect.

[1] = SELP hCV11975296, All Patients, 2 Rare Alleles, Prava arm
[2] = Coronary Artery Bypass or Revascularization
[3] = Hosp. for Cardiovascular Disease
[4] = SN hCV25623265, All Patients, 0 Rare Alleles, Prava arm
[5] = SN hCV25623265, All Patients, 1 Rare Allele, Prava arm
[6] = SN hCV25623265, All Patients, 2 Rare Alleles, Prava arm
[7] = TGFB1 hCV8708473, All Patients, 0 Rare Alleles, Prava arm

## CC[C@H](C)C(=O)O[C@H]1C[C@H](O)C=C2C=C[C@H](C)[C@H](CC[C@@H](O)C[C@@H](O)CC(=O)O)[C@H]21 [pravastatin]
[1]
  Coronary Artery Bypass or Revascularization, n/total (%): (20.3%)
  Hosp. for Cardiovascular Disease, n/total (%): (49.2%)
  Hosp. for Unstable Angina, n/total (%): (27.1%)
[2]
  Prava vs. Placebo Odds Ratio, 0 Rare Alleles: 0.68
  Prava vs. Placebo Odds Ratio, 1 Rare Alleles: 0.63
  Prava vs. Placebo Odds Ratio, 2 Rare Alleles: 5.74
[3]
  Prava vs. Placebo Odds Ratio, 0 Rare Alleles: 0.81
  Prava vs. Placebo Odds Ratio, 1 Rare Alleles: 0.62
  Prava vs. Placebo Odds Ratio, 2 Rare Alleles: 1.71
Hosp. for Unstable Angina
  Prava vs. Placebo Odds Ratio, 0 Rare Alleles: 0.82
  Prava vs. Placebo Odds Ratio, 1 Rare Alleles: 0.69
  Prava vs. Placebo Odds Ratio, 2 Rare Alleles: 5.45
0 Rare Alleles, Prava arm
  Any Report of Stroke During CARE, n/total (%): (2.9%)
  Fatal/Non-fatal Cerebrovascular Disease, n/total (%): (5.9%)
  Coronary Artery Bypass Graft, n/total (%): (6.1%)
  Fatal/Nonfatal Atherosclerotic CV Disease, n/total (%): (34.9%)
  Fatal CHD/Definite Non-fatal MI, n/total (%): (10.0%)
1 Rare Allele, Prava arm
  Any Report of Stroke During CARE, n/total (%): (1.2%)
  Fatal/Non-fatal Cerebrovascular Disease, n/total (%): (2.8%)
  Coronary Artery Bypass Graft, n/total (%): (9.0%)
  Fatal/Nonfatal Atherosclerotic CV Disease, n/total (%): (32.4%)
  Fatal CHD/Definite Non-fatal MI, n/total (%): (8.2%)
2 Rare Alleles, Prava arm
  Any Report of Stroke During CARE, n/total (%): (1.4%)
  Fatal/Non-fatal Cerebrovascular Disease, n/total (%): (2.7%)
  Coronary Artery Bypass Graft, n/total (%): (7.4%)
  Fatal/Nonfatal Atherosclerotic CV Disease, n/total (%): (29.7%)
  Fatal CHD/Definite Non-fatal MI, n/total (%): (4.1%)
SERPINA1 hCV1260328, Any Report of Stroke During CARE, 0 rare alleles
  Odds ratio pravastatin vs placebo: 0.87
SERPINA1 hCV1260328, Any Report of Stroke During CARE, 1 rare allele
  Odds ratio pravastatin vs placebo: 0.23
SERPINA1 hCV1260328, Any Report of Stroke During CARE, 2 rare alleles
  Odds ratio pravastatin vs placebo: 0.21
SERPINA1 hCV1260328, Fatal/Non-fatal Cerebrovascular Disease, 0 rare alleles
  Odds ratio pravastatin vs placebo: 1.03
SERPINA1 hCV1260328, Fatal/Non-fatal Cerebrovascular Disease, 1 rare allele
  Odds ratio pravastatin vs placebo: 0.36
SERPINA1 hCV1260328, Fatal/Non-fatal Cerebrovascular Disease, 2 rare alleles
  Odds ratio pravastatin vs placebo: 0.17
[4]
  Coronary Artery Bypass or Revascularization, n/total (%): (13.0%)
  Definite Nonfatal MI, n/total (%): (8.2%)
  Fatal CHD/Definite Nonfatal MI, n/total (%): (9.7%)
  Percutaneous Transluminal Coronary Angioplas, n/total (%): (7.5%)
  Total Coronary Heart Disease Events, n/total (%): (27.2%)
[5]
  Coronary Artery Bypass or Revascularization, n/total (%): (14.9%)
  Definite Nonfatal MI, n/total (%): (7.6%)
  Fatal CHD/Definite Nonfatal MI, n/total (%): (10.8%)
  Percutaneous Transluminal Coronary Angioplas, n/total (%): (9.5%)
  Total Coronary Heart Disease Events, n/total (%): (30.5%)
[6]
  Coronary Artery Bypass or Revascularization, n/total (%): (15.0%)
  Definite Nonfatal MI, n/total (%): (2.8%)
  Fatal CHD/Definite Nonfatal MI, n/total (%): (4.6%)
  Percutaneous Transluminal Coronary Angioplas, n/total (%): (9.8%)
  Total Coronary Heart Disease Events, n/total (%): (28.2%)
TAP1 hCV549926, Fatal CHD/Definite Non-fatal MI, 0 rare alleles
  Odds ratio pravastatin vs placebo: 0.85
TAP1 hCV549926, Fatal CHD/Definite Non-fatal MI, 1 rare allele
  Odds ratio pravastatin vs placebo: 0.54
TAP1 hCV549926, Fatal CHD/Definite Non-fatal MI, 2 rare alleles
  Odds ratio pravastatin vs placebo: 0.16
[7]
  Any Report of Stroke Prior to or During CARE, n/total (%): (7.5%)
  Cardiovascular Mortality, n/total (%): (5.5%)
  Fatal Atherosclerotic Cardiovascular Disease, n/total (%): (5.4%)
  Fatal Coronary Heart Disease, n/total (%): (5.1%)
  Fatal/Non-fatal Atherosclerotic CV Disease, n/total (%): (37.2%)
  Total Coronary Heart Disease Events, n/total (%): (32.1%)
  Total Mortality, n/total (%): (7.2%)
